# Source: EP4667458A1 (Kanaph Therapeutics Inc., priority 2023, dated 2024)
# Target: T1, KRAS^G12C::SOS1 (Homo sapiens, UniProt Q07889)
# T1 sequence (Q07889 1-1333): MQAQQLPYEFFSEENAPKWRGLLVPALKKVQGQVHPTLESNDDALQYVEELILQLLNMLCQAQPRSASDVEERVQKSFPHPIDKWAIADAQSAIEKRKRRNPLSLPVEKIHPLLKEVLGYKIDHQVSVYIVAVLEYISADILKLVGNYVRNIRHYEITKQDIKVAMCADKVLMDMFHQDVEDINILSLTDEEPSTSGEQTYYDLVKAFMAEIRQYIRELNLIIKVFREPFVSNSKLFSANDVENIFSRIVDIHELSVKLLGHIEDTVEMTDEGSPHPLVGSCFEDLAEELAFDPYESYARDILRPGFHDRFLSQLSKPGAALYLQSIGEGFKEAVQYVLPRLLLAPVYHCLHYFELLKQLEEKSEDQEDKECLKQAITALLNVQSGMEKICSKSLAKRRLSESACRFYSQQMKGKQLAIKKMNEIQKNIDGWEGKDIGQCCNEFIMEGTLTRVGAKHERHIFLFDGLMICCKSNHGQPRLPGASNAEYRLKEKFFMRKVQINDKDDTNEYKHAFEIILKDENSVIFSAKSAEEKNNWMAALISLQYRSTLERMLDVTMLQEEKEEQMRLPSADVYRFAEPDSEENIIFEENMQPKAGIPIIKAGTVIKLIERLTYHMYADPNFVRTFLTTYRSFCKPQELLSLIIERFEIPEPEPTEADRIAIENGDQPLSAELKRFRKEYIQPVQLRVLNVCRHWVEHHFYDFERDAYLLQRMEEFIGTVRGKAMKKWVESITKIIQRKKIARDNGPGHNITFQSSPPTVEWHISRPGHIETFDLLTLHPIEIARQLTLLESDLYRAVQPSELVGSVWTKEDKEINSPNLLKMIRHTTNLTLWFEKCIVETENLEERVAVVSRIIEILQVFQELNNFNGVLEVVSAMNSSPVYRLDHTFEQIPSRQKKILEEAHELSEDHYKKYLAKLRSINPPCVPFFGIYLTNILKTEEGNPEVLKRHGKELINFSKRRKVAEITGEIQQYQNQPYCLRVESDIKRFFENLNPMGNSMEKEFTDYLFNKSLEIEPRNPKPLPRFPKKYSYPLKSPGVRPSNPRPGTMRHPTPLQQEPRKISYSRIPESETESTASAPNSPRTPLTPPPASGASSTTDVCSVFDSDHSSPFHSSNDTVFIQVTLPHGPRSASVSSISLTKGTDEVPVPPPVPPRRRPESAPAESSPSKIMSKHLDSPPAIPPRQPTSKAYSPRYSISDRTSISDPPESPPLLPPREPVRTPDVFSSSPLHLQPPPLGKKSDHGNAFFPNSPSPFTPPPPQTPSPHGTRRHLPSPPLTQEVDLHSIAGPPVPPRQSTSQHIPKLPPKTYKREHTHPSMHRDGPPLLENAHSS
# Test: KRAS G12C::SOS1 protein-protein interaction (PPI) inhibition assay (HTRF binding kit)
row,Structure (SMILES),IC50 [nM]
1,"C[C@@H](NC(=O)c1nn(-c2ccccc2F)c(=O)c2ccsc12)c1cccc(C(F)(F)CO)c1F [Example 310, N-[(1R)-1-[3-(1,1-difluoro-2-hydroxy-ethyl)-2-fluoro-phenyl]ethyl]-5-(2-fluorophenyl)-4-oxo-thieno[2,3-d]pyridazine-7-carboxamide]",< 1000
2,"C[C@@H](NC(=O)c1nn(-c2cccnc2F)c(=O)c2ccsc12)c1cc(N)cc(C(F)(F)F)c1 [Example 311, N-[(1R)-1-[3-amino-5-(trifluoromethyl)phenyl]ethyl]-5-(2-fluoro-3-pyridyl)-4-oxo-thieno[2,3-d]pyridazine-7-carboxamide]",< 1000
3,"C[C@@H](NC(=O)c1nn(-c2ccccc2F)c(=O)c2sccc12)c1cc(N)cc(C(F)(F)F)c1 [Example 312, N-[(1R)-1-[3-amino-5-(trifluoromethyl)phenyl]ethyl]-6-(2-fluorophenyl)-7-oxo-thieno[2,3-d]pyridazine-4-carboxamide]",< 1000
4,"CC(=O)Nc1cc(=O)n(-c2ccccc2)nc1C(=O)N[C@H](C)c1cc(N)cc(C(F)(F)F)c1 [Example 313, 4-acetamido-N-[(1R)-1-[3-amino-5-(trifluoromethyl)phenyl]ethyl]-6-oxo-1-phenyl-pyridazine-3-carboxamide]",< 1000
5,"C[C@@H](NC(=O)c1nn(-c2ccccc2F)c(=O)c2cc[nH]c12)c1cccc(C(F)(F)CO)c1F [Example 314, N-[(1R)-1-[3-(1,1-difluoro-2-hydroxy-ethyl)-2-fluoro-phenyl]ethyl]-5-(2-fluorophenyl)-4-oxo-1H-pyrrolo[2,3-d]pyridazine-7-carboxamide]",< 1000
6,"C[C@@H](NC(=O)c1nn(-c2cnn(C)c2)c(=O)c2ccsc12)c1cc(N)cc(C(F)(F)F)c1 [Example 316, N-[(1R)-1-[3-amino-5-(trifluoromethyl)phenyl]ethyl]-5-(1-methylpyrazol-4-yl)-4-oxo-thieno[2,3-d]pyridazine-7-carboxamide]",< 1000
7,"C[C@@H](NC(=O)c1nn(-c2ccccc2)c(=O)c2ccsc12)c1cc(N)cc(C(F)(F)F)c1 [Example 317, N-[(1R)-1-[3-amino-5-(trifluoromethyl)phenyl]ethyl]-4-oxo-5-phenyl-thieno[2,3-d]pyridazine-7-carboxamide]",< 1000
8,"C[C@@H](NC(=O)c1ccc(=O)n(-c2cccc(-c3ncnn3C)c2)c1)c1cc(N)cc(C(F)(F)F)c1 [Example 318, N-[(1R)-1-[3-amino-5-(trifluoromethyl)phenyl]ethyl]-1-[3-(2-methyl-1,2,4-triazol-3-yl)phenyl]-6-oxo-pyridine-3-carboxamide]",< 1000
9,"Cc1nnc(-c2cccc(-n3nc(C(=O)N[C@H](C)c4cc(N)cc(C(F)(F)F)c4)ccc3=O)c2)o1 [Example 319, N-[(1R)-1-[3-amino-5-(trifluoromethyl)phenyl]ethyl]-1-[3-(5-methyl-1,3,4-oxadiazol-2-yl)phenyl]-6-oxo-pyridazine-3-carboxamide]",< 1000
10,"C[C@@H](NC(=O)c1ccc(=O)n(-c2cccc(-c3cncn3C)c2)n1)c1cc(N)cc(C(F)(F)F)c1 [Example 320, N-[(1R)-1-[3-amino-5-(trifluoromethyl)phenyl]ethyl]-1-[3-(3-methylimidazol-4-yl)phenyl]-6-oxo-pyridazine-3-carboxamide]",< 1000
11,"C[C@@H](NC(=O)c1ccc(=O)n(-c2cccc(-c3ccnn3C)c2)c1)c1cc(N)cc(C(F)(F)F)c1 [Example 321, N-[(1R)-1-[3-amino-5-(trifluoromethyl)phenyl]ethyl]-1-[3-(2-methylpyrazol-3-yl)phenyl]-6-oxo-pyridine-3-carboxamide]",< 1000
12,"C[C@@H](NC(=O)c1ccc(=O)n(-c2cccc(-c3ncn(C)n3)c2)n1)c1cc(N)cc(C(F)(F)F)c1 [Example 323, N-[(1R)-1-[3-amino-5-(trifluoromethyl)phenyl]ethyl]-1-[3-(1-methyl-1,2,4-triazol-3-yl)phenyl]-6-oxo-pyridazine-3-carboxamide]",< 1000
13,"Cc1ncccc1-c1cccc(-n2nc(C(=O)N[C@H](C)c3cc(N)cc(C(F)(F)F)c3)ccc2=O)c1 [Example 324, N-[(1R)-1-[3-amino-5-(trifluoromethyl)phenyl]ethyl]-1-[3-(2-methyl-3-pyridyl)phenyl]-6-oxo-pyridazine-3-carboxamide]",< 1000
14,"C[C@@H](NC(=O)c1ccc(=O)n(-c2cccc(-c3ccccn3)c2)n1)c1cc(N)cc(C(F)(F)F)c1 [Example 325, N-[(1R)-1-[3-amino-5-(trifluoromethyl)phenyl]ethyl]-6-oxo-1-[3-(2-pyridyl)phenyl]pyridazine-3-carboxamide]",< 1000
15,"C[C@@H](NC(=O)c1ccc(=O)n(-c2cccc(-c3cnnn3C)c2)c1)c1cc(N)cc(C(F)(F)F)c1 [Example 326, N-[(1R)-1-[3-amino-5-(trifluoromethyl)phenyl]ethyl]-1-[3-(3-methyltriazol-4-yl)phenyl]-6-oxo-pyridine-3-carboxamide]",< 1000
16,"CCn1nncc1-c1cccc(-n2nc(C(=O)N[C@H](C)c3cc(N)cc(C(F)(F)F)c3)ccc2=O)c1 [Example 327, N-[(1R)-1-[3-amino-5-(trifluoromethyl)phenyl]ethyl]-1-[3-(3-ethyltriazol-4-yl)phenyl]-6-oxo-pyridazine-3-carboxamide]",< 1000
17,"C[C@@H](NC(=O)c1ccc(=O)n(-c2cccc(-c3ncnn3C)c2)n1)c1cc(N)cc(C(F)(F)F)c1 [Example 328, N-[(1R)-1-[3-amino-5-(trifluoromethyl)phenyl]ethyl]-1-[3-(2-methyl-1,2,4-triazol-3-yl)phenyl]-6-oxo-pyridazine-3-carboxamide]",< 1000
18,"C[C@@H](NC(=O)c1ccc(=O)n(-c2cccc(-c3ccn[nH]3)c2)n1)c1cc(N)cc(C(F)(F)F)c1 [Example 329, N-[(1R)-1-[3-amino-5-(trifluoromethyl)phenyl]ethyl]-6-oxo-1-[3-(1H-pyrazol-5-yl)phenyl]pyridazine-3-carboxamide]",< 1000
19,"C[C@@H](NC(=O)c1ccc(=O)n(-c2cccc(-c3ccn(C)n3)c2)n1)c1cccc(C(F)(F)CO)c1F [Example 330, N-[(1R)-1-[3-(1,1-difluoro-2-hydroxy-ethyl)-2-fluoro-phenyl]ethyl]-1-[3-(1-methylpyrazol-3-yl)phenyl]-6-oxo-pyridazine-3-carboxamide]",< 1000
20,"C[C@@H](NC(=O)c1ccc(=O)n(-c2cccc(-c3ccn(C)n3)c2)n1)c1cc(N)cc(C(F)(F)F)c1 [Example 331, N-[(1R)-1-[3-amino-5-(trifluoromethyl)phenyl]ethyl]-1-[3-(1-methylpyrazol-3-yl)phenyl]-6-oxo-pyridazine-3-carboxamide]",< 1000
21,"C[C@@H](NC(=O)c1ccc(=O)n(-c2cccc(-c3ccnn3C)c2)n1)c1cccc(C(F)(F)CO)c1F [Example 332, N-[(1R)-1-[3-(1,1-difluoro-2-hydroxy-ethyl)-2-fluoro-phenyl]ethyl]-1-[3-(2-methylpyrazol-3-yl)phenyl]-6-oxo-pyridazine-3-carboxamide]",< 1000
22,"C[C@@H](NC(=O)c1ccc(=O)n(-c2cccc(-c3ccnn3C)c2)n1)c1cc(N)cc(C(F)(F)F)c1 [Example 333, N-[(1R)-1-[3-amino-5-(trifluoromethyl)phenyl]ethyl]-1-[3-(2-methylpyrazol-3-yl)phenyl]-6-oxo-pyridazine-3-carboxamide]",< 1000
23,"C[C@@H](NC(=O)c1ccc(=O)n(-c2cccc(-c3cnn(C)c3)c2)n1)c1cc(N)cc(C(F)(F)F)c1 [Example 334, N-[(1R)-1-[3-amino-5-(trifluoromethyl)phenyl]ethyl]-1-[3-(1-methylpyrazol-4-yl)phenyl]-6-oxo-pyridazine-3-carboxamide]",< 1000
24,"C[C@@H](NC(=O)c1ccc(=O)n(-c2cccc(-c3cnnn3C)c2)c1)c1cccc(C(F)(F)CO)c1F [Example 335, N-[(1R)-1-[3-(1,1-difluoro-2-hydroxy-ethyl)-2-fluoro-phenyl]ethyl]-1-[3-(3-methyltriazol-4-yl)phenyl]-6-oxo-pyridine-3-carboxamide]",< 1000
